From ChEMBL document CHEMBL1201862, “PubChem BioAssay data set” (2004)
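All cell lines were grown in 96-well plates and treated with compound for 48 hours. GI50: concentration for 50% inhibition of growth.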 Active and inactive are the calls of the source. Rule as the data show it: active = GI50 up to about 1.1 µM and inactive = higher.

What was measured:
Assay in all cases: NCI anticancer screen, dose series, 48 h
A498 = system: A498
COLO 205 = system: COLO 205
HOP-92 = system: HOP-92
K562 = system: K562
M14 = system: M14
MDA-MB-231 = system: MDA-MB-231
MDA-MB-435 = system: MDA-MB-435
MDA-N = system: MDA-N
NCI-H23 = system: NCI-H23
NCI-H522 = system: NCI-H522
OVCAR-3 = system: OVCAR-3
OVCAR-4 = system: OVCAR-4
RPMI-8226 = system: RPMI-8226
SK-MEL-5 = system: SK-MEL-5
SN12C = system: SN12C
SNB-75 = system: SNB-75
SW-620 = system: SW-620
T47D = system: T47D
TK-10 = system: TK-10
UO-31 = system: UO-31

Row | SMILES | GI50 (A498) | GI50 (COLO 205) | GI50 (HOP-92) | GI50 (K562) | GI50 (M14) | GI50 (MDA-MB-231) | GI50 (MDA-MB-435) | GI50 (MDA-N) | GI50 (NCI-H23) | GI50 (NCI-H522) | GI50 (OVCAR-3) | GI50 (OVCAR-4) | GI50 (RPMI-8226) | GI50 (SK-MEL-5) | GI50 (SN12C) | GI50 (SNB-75) | GI50 (SW-620) | GI50 (T47D) | GI50 (TK-10) | GI50 (UO-31)
1 | CCOC(=O)C(NC(=O)OCc1ccccc1)C(=O)O (stereo not given) | > 100 µM (inactive) | > 100 µM (inactive) | > 100 µM (inactive) | > 100 µM (inactive) | > 100 µM (inactive) | > 100 µM (inactive) | > 100 µM (inactive) | > 100 µM (inactive) | > 100 µM (inactive) | > 100 µM (inactive) | > 100 µM (inactive) | > 100 µM (inactive) | > 100 µM (inactive) | > 100 µM (inactive) | > 100 µM (inactive) | > 100 µM (inactive) | > 100 µM (inactive) | > 100 µM (inactive) | > 100 µM (inactive) | > 100 µM (inactive)
2 | CCOC(=O)C(=O)N1C(C)=C(C(=O)OCC)CC(C(=O)OCC)=C1C | > 100 µM (inactive) | > 100 µM (inactive) | > 100 µM (inactive) | > 100 µM (inactive) | > 100 µM (inactive) | > 100 µM (inactive) | > 100 µM (inactive) | > 100 µM (inactive) | > 100 µM (inactive) | > 100 µM (inactive) | > 100 µM (inactive) | > 100 µM (inactive) | > 100 µM (inactive) | > 100 µM (inactive) | > 100 µM (inactive) | 26.7 µM (inactive) | > 100 µM (inactive) | > 100 µM (inactive) | > 100 µM (inactive) | > 100 µM (inactive)
3 | Cc1cc(C)c(S(=O)(=O)N(CCCN)OCCON(CCCN)S(=O)(=O)c2c(C)cc(C)cc2C)c(C)c1 | 19.5 µM (inactive) | 2.66 µM (inactive) | 6.24 µM (inactive) | 2.96 µM (inactive) | 2.75 µM (inactive) | 2.89 µM (inactive) | 3.89 µM (inactive) | 2.74 µM (inactive) | 2.59 µM (inactive) | 6.53 µM (inactive) | 1.79 µM (inactive) | 3.3 µM (inactive) | 2.05 µM (inactive) | 8.2 µM (inactive) | 7.87 µM (inactive) | 3.42 µM (inactive) | > 22.2 µM (inactive) | 4.92 µM (inactive) | 8 µM (inactive) | 23.3 µM (inactive)
4 | O=C(O)c1ccc(NC(c2ccccc2)c2ccc3cccnc3c2O)cc1 (stereo not given) | 18.3 µM (inactive) | 9.84 µM (inactive) | 20.2 µM (inactive) | 3.56 µM (inactive) | 6.19 µM (inactive) | 10.8 µM (inactive) | 16.3 µM (inactive) | 17.5 µM (inactive) | 14.7 µM (inactive) | 4.06 µM (inactive) | 2.99 µM (inactive) | 4.63 µM (inactive) | 4.38 µM (inactive) | 6.65 µM (inactive) | 6.87 µM (inactive) | 11.6 µM (inactive) | 5.77 µM (inactive) | 10.9 µM (inactive) | 13.7 µM (inactive) | 5.75 µM (inactive)
5 | CC1CC2CCCC(=O)C2=C(O)O1 (stereo not given) | > 100 µM (inactive) | > 100 µM (inactive) | > 100 µM (inactive) | > 100 µM (inactive) | > 100 µM (inactive) | > 100 µM (inactive) | > 100 µM (inactive) | > 100 µM (inactive) | > 100 µM (inactive) | > 100 µM (inactive) | > 100 µM (inactive) | > 100 µM (inactive) | > 100 µM (inactive) | > 100 µM (inactive) | > 100 µM (inactive) | > 100 µM (inactive) | > 100 µM (inactive) | > 100 µM (inactive) | > 100 µM (inactive) | > 100 µM (inactive)
6 | COc1ccc(NC(=O)/C(=N/NC(N)=S)C2C(=O)NC(=S)NC2=O)c(OC)c1 | > 100 µM (inactive) | > 100 µM (inactive) | > 100 µM (inactive) | > 100 µM (inactive) | > 100 µM (inactive) | > 100 µM (inactive) | > 100 µM (inactive) | > 100 µM (inactive) | > 100 µM (inactive) | > 100 µM (inactive) | > 100 µM (inactive) | > 100 µM (inactive) | > 100 µM (inactive) | > 100 µM (inactive) | > 100 µM (inactive) | > 100 µM (inactive) | > 100 µM (inactive) | > 100 µM (inactive) | > 100 µM (inactive) | > 100 µM (inactive)
7 | CN(C)C(=O)Oc1ccc(-c2cn3cc(NC(=O)c4ccccc4)ccc3n2)cc1 | > 100 µM (inactive) | 14.3 µM (inactive) | > 100 µM (inactive) | 19.5 µM (inactive) | > 100 µM (inactive) | > 100 µM (inactive) | 85.7 µM (inactive) | > 100 µM (inactive) | > 100 µM (inactive) | 26.4 µM (inactive) | 53.7 µM (inactive) | 55 µM (inactive) | 19.1 µM (inactive) | 21.4 µM (inactive) | > 100 µM (inactive) | 86.1 µM (inactive) | 48.5 µM (inactive) | 21.6 µM (inactive) | > 100 µM (inactive) | > 100 µM (inactive)
8 | CC(C)CC(=O)OC[n+]1ccc(-c2c(COC(=O)NC(C)C)c(COC(=O)NC(C)C)c3n2CCC3)cc1 | 84.3 µM (inactive) | > 100 µM (inactive) | > 100 µM (inactive) | > 100 µM (inactive) | > 100 µM (inactive) | > 100 µM (inactive) | > 100 µM (inactive) | > 100 µM (inactive) | 75.2 µM (inactive) | > 100 µM (inactive) | > 100 µM (inactive) | > 100 µM (inactive) | > 100 µM (inactive) | > 100 µM (inactive) | > 100 µM (inactive) | > 100 µM (inactive) | > 100 µM (inactive) | > 100 µM (inactive) | > 100 µM (inactive) | > 100 µM (inactive)
9 | Cc1ccc2c(c1)c1ccc3c(c1n2C)C(=O)C=CC3=O | 2.88 µM (inactive) | 1.26 µM (inactive) | 2.03 µM (inactive) | 0.468 µM (active) | 2.05 µM (inactive) | 2.36 µM (inactive) | 2.35 µM (inactive) | 1.73 µM (inactive) | 2.62 µM (inactive) | 1.23 µM (inactive) | 1.95 µM (inactive) | 2.32 µM (inactive) | 1.23 µM (inactive) | 4.56 µM (inactive) | 3.52 µM (inactive) | > 10 µM (inactive) | 0.543 µM (active) | 1.63 µM (inactive) | 2 µM (inactive) | 1.41 µM (inactive)
10 | CCCCCCCCCC[C@H](O)[C@H]1CC[C@@H]([C@@H](O)CC[C@H](O)[C@@H]2CCC(CCCCCCC[C@@H](O)CC3=C[C@H](C)OC3=O)O2)O1 (stereo not given in full) | 3.16 µM (inactive) | 2.37 µM (inactive) | 1.02 µM (active) | 1.37 µM (inactive) | 1.5 µM (inactive) | 2.62 µM (inactive) | 1.33 µM (inactive) | 2.43 µM (inactive) | 1.31 µM (inactive) | 3.7 µM (inactive) | 1.35 µM (inactive) | 4.4 µM (inactive) | 2.52 µM (inactive) | 1.5 µM (inactive) | 2.94 µM (inactive) | 2.47 µM (inactive) | 1.69 µM (inactive) | 3.08 µM (inactive) | 1.59 µM (inactive) | 0.00416 µM (active)
11 | CC(NC1=NCCO1)c1cccc([N+](=O)[O-])c1 (stereo not given) | > 100 µM (inactive) | > 100 µM (inactive) | 30 µM (inactive) | > 100 µM (inactive) | > 100 µM (inactive) | > 100 µM (inactive) | > 100 µM (inactive) | > 100 µM (inactive) | > 100 µM (inactive) | > 100 µM (inactive) | > 100 µM (inactive) | > 100 µM (inactive) | > 100 µM (inactive) | > 100 µM (inactive) | > 100 µM (inactive) | > 100 µM (inactive) | > 100 µM (inactive) | > 100 µM (inactive) | > 100 µM (inactive) | > 100 µM (inactive)
12 | COc1ccc(-c2cn3c(nc4ccccc43)c(C)n2)cc1 | > 76.4 µM (inactive) | > 100 µM (inactive) | 21.7 µM (inactive) | > 100 µM (inactive) | > 100 µM (inactive) | > 100 µM (inactive) | > 96.2 µM (inactive) | > 100 µM (inactive) | 50.4 µM (inactive) | 39.1 µM (inactive) | 54.8 µM (inactive) | 47.6 µM (inactive) | > 75.9 µM (inactive) | 21.5 µM (inactive) | > 77.1 µM (inactive) | > 50.8 µM (inactive) | > 100 µM (inactive) | 8.3 µM (inactive) | 58.9 µM (inactive) | 13.7 µM (inactive)
13 | COC(=O)c1ccccc1NC(=O)C(=O)CC(=O)c1ccccc1NC1=CC(=O)C(=O)c2ccccc21 | > 56.2 µM (inactive) | 31.9 µM (inactive) | 5.16 µM (inactive) | 2.91 µM (inactive) | 5.12 µM (inactive) | 3.4 µM (inactive) | 4.15 µM (inactive) | 1.71 µM (inactive) | 5.09 µM (inactive) | 5.22 µM (inactive) | 1.78 µM (inactive) | 7.91 µM (inactive) | 2.64 µM (inactive) | 5.13 µM (inactive) | 3.94 µM (inactive) | 17.5 µM (inactive) | 5.4 µM (inactive) | 18.7 µM (inactive) | 67.6 µM (inactive) | 15.1 µM (inactive)
